In article PMC7156724, “Potent BRD4 inhibitor suppresses cancer cell-macrophage interaction” (Nature Communications, 2020):
Several values for one entry are separate records, joined by “and”; a condition that tells them apart may be missing. Identical values can stand only once. Values belong to the molecule of their own block, whether it stands above or below them.

What was measured:
[1] = test system: human melanoma patient-derived xenograft (PDX); test: Human melanoma patient-derived xenograft (PDX) tumor growth; assay type: in vivo, NSG mice; details: Fig.3f, 1.5mg/kg, individual animals, in mm³ (unit assumed)
From the text: PO, oral administration; QD, once daily; BID, twice daily. b–d Tumor growth curves for A2780 ovarian tumor (n = 5) (b), TMD8 large B cell lymphoma (n = 6) (c), and B16F10 melanoma (n = 5) (d) bearing mice treated with the indicated compounds once daily for 11-21 days. e, f Tumor growth curves for A375 melanoma (n = 6) (e), and patient-derived xenograft (PDX) of melanoma (n = 5) (f) bearing mice treated with the indicated compounds once daily (5 days on, 2 days off) for 21 days. For d–f, NHWD-870 used is NHWD-870-HCl synthesized using Suzuki coupling route. Data are presented as mean ± SEM in (a, b, d, f) and mean + SEM in (c, e). p values were calculated using two-tailed, unpaired t tests. *p < 0.05; **p < 0.01; ***p < 0.001. Source data are provided as a Source Data file.
4–6 weeks old female BALB/c nude mice were used for most experiments, with the exception of 6–8 weeks old female C57BL/6 mice were used for B16F10 experiments, and 6–8 weeks old male BALB/c nude mice and SD rats were used for pharmacokinetic experiments. All animals were purchased from Shanghai SIPPR-Bk Lab Animal Co., Ltd. All animals were housed under a regimen of 12 h light/12 h dark cycles and specific pathogen-free conditions. 5×10^6 NCI-H526, ES-2, MDA-MB231, A2780, A375, B16F10, and TMD-8 cells (0.1 ml) were injected subcutaneously into female nude mice. The melanoma patient-derived xenograft model was derived from a human melanoma sample (BRAF, NARS and NF1 wild type, and p53 mutant) removed from a patient in Xiangya Hospital. Surgically removed tumor fragments were implanted subcutaneously into female NSG mice. When the tumors grew to ~1000 mm^3, they were harvested and cryopreserved or immediately re-implanted for expansion or experiments. Mouse body weight and tumor sizes were measured every 3 days. Once the tumors grew to 150–200 mm^3, mice were treated with the compounds as described in the Figures. 1 × 10^6 A2780 cells (1 ml) were injected into the abdominal cavity of nude mice. Ascitic volume and tumor weight were measured by an electronic balance. All the procedures were evaluated and approved by the Institutional Animal Care and Use Committee of Central South University and Yale University.

A375 melanoma cells = test: AlamarBlue assay, A375; assay type: cell-based, human; details: for Cellular activity in melanoma cells (A375), alamarBlue: Fig.1g, replicates
Procedure: 3. AlamarBlue assay. AlamarBlue was made by resazurin sodium salt (Sigma, Cat
# 199303) dissolved in PBS.
NCI-H211, MDA-MB231 and A375 cells were plated in 96-well plates at approximately 30% confluence and left overnight to adhere. In the following day, […]
of treatment, 10 μl AlamarBlue reagent (0.3 mg/ml) was added to each well, and after 18h, the florescence intensity in each well was measured using a top-reading fluorescent plate reader with excitation at 530 nm and emission at 590 nm. […]

HIF1 reporter activity = test: HIF1 luciferase reporter assay; assay type: cell-based, human; details: A2780 and A375 cells, 20% or 1% O2, 24 h
Procedure: Fig. 7 NHWD-870 inhibited CSF1 expression through suppressing BRD4 and HIF1α in tumor cells. a, b Representative western blot analysis of control (Ctrl) and BRD4 knockout (KO) A375 and A2780 cells exposed to 20% or 1% O2 for 24 hours. Selected from three independent experiments. c, d Representative western blot analysis of A375 and A2780 cells treated with DMSO or 25 nM NHWD-870 and exposed to 20% or 1% O2 for 24 h. Selected from three independent experiments. e Relative HIF1 luciferase reporter activity in control (Ctrl), BRD4 knockout (KO), or NHWD-870 treated A375 and A2780 cells exposed to 20% or 1% O2 for 24 h. Data are presented as mean ± SEM from three independent experiments. f RT-qPCR analyses of CSF1 in control (Ctrl), BRD4 knockout (KO), or NHWD-870 treated A375 and A2780 cells exposed to 20% or 1% O2 for 24 hours. Data are presented as mean ± SEM from three independent experiments. g RT-qPCR analyses of HIF1A in A375 or A2780 cells treated with 15 nM NHWD-870 or DMSO control for 24 h. Data are presented as mean ± SEM from three independent experiments. h Genome browser view of BRD4 ChIP-seq peaks on the HIF1A promoter. Shown are BRD4 ChIP and input control of A375 cells (top panel) and BRD4 ChIP of MDA-MB231 cells treated with DMSO or JQ-1 (bottom panel). i BRD4 ChIP-qPCR analyses of the HIF1A promoter in A2780 cells treated with DMSO or NHWD-870 for 72 h. Data are presented as mean ± SEM from three independent experiments. j RT-qPCR analyses of CSF1 in A375 and A2780 cells were transiently transduced with HIF1α, then exposed to 1% O2 for 24 h. Ctrl, Control. Data are presented as mean ± SEM from three independent experiments. k A model showing the effects of NHWD-870 on cancer cell-TAM interaction. NHWD-870 inhibits the proliferation and survival of TAMs partly by inhibiting BRD4 activity, HIF1α expression, and CSF1 secretion by tumor cells, and downregulating CSF1R mediated ERK and PI3K/AKT signaling in TAMs. p values were calculated using two-tailed, unpaired t tests in this figure. *p < 0.05; **p < 0.01; ***p < 0.001. Source data are provided as a Source Data file.
Supplementary Figure 15. […]
Data in (a) and (c-e) are presented as mean ± SEM from 3 independent experiments. p values were calculated using two-tailed, unpaired t tests. **, p<0.01; ***, p<0.001. Source data are provided as a Source […]
All patients had […]
undergone complete cytoreductive surgery.
14. Immunohistochemical staining. Paraffin-embedded implantation samples isolated from peritoneal metastasis of EOC patients (128 cases) were sectioned at a thickness of 4μm. To stain CD68, CSF1 and p-BRD4, the slides were first deparaffinized in xylene and rehydrated with gradient concentrations of alcohol under standard procedures. After rehydration, the slides were immersed in 0.01 mol/L citrate buffer (pH 6.0) and heated (95°C) for 15 min for antigen retrieval.
Then, the samples were incubated with 3% hydrogen peroxide (H2O2) for 10 minutes followed by 10% normal goat serum blocking for 10 minutes. Subsequently, the sections were incubated with rabbit polyclonal anti-human CD68 antibody (dilution 1:100) (sc-20060, Santa Cruz Biotechnology) and anti-human p-BRD4

TAMs = test: Transwell co-culture of pretreated A2780 cells and TAMs with CSF1 or anti-CSF1R antibodies; assay type: cell-based, mouse; details: co-culture with pretreated A2780 cells, MCSF-1 10ng/ml where added
Procedure: Fig. 6 CSF1/CSF1R signaling is critical for the tumor inhibitory effects of NHWD-870 and CSF1 induced ovarian cancer growth depends on macrophages. a Number of TAMs after treatment with the indicated concentration of CSF1 for 48 h. Data are presented as mean ± SEM from three independent experiments. b–d Schematics of the experiments (b). A2780 cells (pre-treated with DMSO or 100 nM NHWD-870 for 48 h) were seeded into the top chamber (transwell size: 0.4 μm), and TAMs (Mac, 40,000 cells per 24-well) in medium with PBS or 10 ng/ml CSF1 (c), or 50 ng/ml IgG or anti-CSF1R antibodies (d), were seeded into the bottom chamber. Shown are quantification of TAMs (c, d). Data are presented as mean ± SEM from three independent experiments. e Representative western blot analysis of A2780 cells stably transfected with CSF1 or empty vector (EV). Selected from three independent experiments. f Schematics of the animal experiments using an orthotopic mouse OC model, established by intraperitoneally injecting 1 × 10^6 (g–j) or 2 × 10^6 (k–m) human A2780 cells overexpressing CSF1 or control into female recipient nude mice. Mice were then treated with/without liposomal clodronate (LC) for 45 days (g–j) or treated with/without NHWD-870 (PO, QD, 3 mg/kg) for 37 days (k–m). g Increased mouse body weight was measured at the indicated time points (day 0-45 after LC treatment). h–j Net tumor weight (h), ascitic fluid volumes (i) tumor implantations in peritoneum, omentum and pevic cavity (j) were measured at day 45 from LC treatment. k–m Net tumor weight (k), ascitic fluid volumes (l) tumor implantations in peritoneum, omentum and pevic cavity (m) were measured at day 37 after NHWD-870 treatment. For g–m, data are presented as mean ± SEM from five different mice. p values were calculated using two-tailed, unpaired t tests in this figure. n.s, not significant; *p < 0.05; **p < 0.01; and ***p < 0.001. Source data are provided as a Source Data file.
CD45^+CD11b^+F4/80^+ TAMs were isolated from peritoneal metastasis of A2780 tumor-bearing mice and cultured in RPMI-1640 supplemented with 10% FBS, 1% penicillin/streptomycin, and 0–50 ng/ml CSF1 (R&D Systems) as indicated according to standard protocols. In the cancer cell-macrophage co-culture experiments, CSF1 was not added. In the transwell (Corning, pore size, 0.4 μm) co-culture experiments, tumor cells were placed into the upper chamber, and TAMs were seeded into the lower chamber.

Molecule: Cc1nnn(C)c1-c1cnc2c3c4cnn(C)c4ccc3n([C@H](c3ccccc3)C3CCOCC3)c2c1.Cl [870-HCI]
Tumor volume ([1]; day 0): 0 | Tumor volume ([1]; day 3): 76 and 83 and 79 and 110 and 130 | Tumor volume ([1]; day 7): 143 and 132 and 174 and 201 and 230 | Tumor volume ([1]; day 11): 195 and 185 and 250 and 289 and 310 | Tumor volume ([1]; day 15): 264 and 276 and 364 and 396 and 423 | Tumor volume ([1]; day 19): 349 and 303 and 474 and 530 and 503 | Tumor volume ([1]; day 21): 425 and 403 and 503 and 684 and 603

IC50 (A375 melanoma cells; Homo sapiens, A-375, nM printed in b8, the picture prints no unit, read-out: IC50, cellular activity in A375 (alamarBlue)): 34.8 nM
Molecule: Cc1sc2c(c1C)C(c1ccc(Cl)cc1)=N[C@@H](CC(=O)Nc1ccc(O)cc1)c1nnc(C)n1-2 [OTX-015]
Cellular activity in melanoma cells (A375), alamarBlue (A375 melanoma cells; concentration(nM) 0.21442): 0.2687 and 0.138 | Cellular activity in melanoma cells (A375), alamarBlue (A375 melanoma cells; concentration(nM) 0.31236): 1.399 and 1.862 | Cellular activity in melanoma cells (A375), alamarBlue (A375 melanoma cells; concentration(nM) 0.4103): 3 and 0.4387 | Cellular activity in melanoma cells (A375), alamarBlue (A375 melanoma cells; concentration(nM) 0.6032): 12.3903 and 10.5044 | Cellular activity in melanoma cells (A375), alamarBlue (A375 melanoma cells; concentration(nM) 1.2043): 24.9941 and 17.1565 | Cellular activity in melanoma cells (A375), alamarBlue (A375 melanoma cells; concentration(nM) 1.8024): 69.0356 and 72.751 | Cellular activity in melanoma cells (A375), alamarBlue (A375 melanoma cells; concentration(nM) 2.4): 91.1738 and 98.6047 | Cellular activity in melanoma cells (A375), alamarBlue (A375 melanoma cells; concentration(nM) 3): 100.838 and 100.296 | HIF1 reporter activity (HIF1 reporter activity): significantly decreased HIF1 reporter activity

B1: MCSF-1 (protein, UniProt P09603 33-554, looked up)
Macrophage colony-stimulating …: EEVSEYCSHMIGSGHLQSLQRLIDSQMETSCQITFEFVDQEQLKDPVCYLKKAFLLVQDIMEDTMRFRDNTPNAIAIVQLQELSLRLKSCFTKDYEEHDKACVRTFYETPLQLLEKVKNVFNETKNLLDKDWNIFSKNCNNSFAECSSQDVVTKPDCNCLYPKAIPSSDPASVSPHQPLAPSMAPVAGLTWEDSEGTEGSSLLPGEQPLHTVDPGSAKQRPPRSTCQSFEPPETPVVKDSTIGGSPQPRPSVGAFNPGMEDILDSAMGTNWVPEEASGEASEIPVPQGTELSPSRPGGGSMQTEPARPSNFLSASSPLPASAKGQQPADVTGTALPRVGPVRPTGQDWNHTPQKTDHPSALLRDPPEPGSPRISSLRPQGLSNPSTLSAQPQLSRSHSSGSVLPLGELEGRRSTRDRRSPAEPEGGPASEGAARPLPRFNSVPLTDTGHERQSEGSFSPQLQESVFHLLVPSVILVLLAVGGLLFYRWRRRSHQEPQRADSPLEQPEGSPLTQDDRQVELPV
Number of TAMs (Fig.6c) (TAMs; time 0): 5 | Number of TAMs (Fig.6c) (TAMs; time 24): 6.1 and 7 and 6.4 | Number of TAMs (Fig.6c) (TAMs; time 48): 18.4 and 16.8 and 17.9 | Number of TAMs (Fig.6c) (TAMs; time 72): 34.1 and 29.5 and 32.5
